# Read-outs that look alike come from different tables or passages of the source.
# How the values were obtained:
# [1] = system: hippocampal CA1 neurons; conditions: cited from earlier work
# [2] = system: liver cells; conditions: oxidative stress-activated NSCCs; cited from earlier work
# [3] = system: nsPEF-exposed cells; test: Whole-cell patch clamp of membrane conductance/resistance after nsPEF exposure; assay type: cell-based
# Protocol: Experiments were performed in GH3 cells (a murine pituitary cell line) and HeLa cells (human epithelial cancer), both obtained from American Type Culture Collection (ATCC, Manassas, Va.) and cultured according to their recommendations. Cells were grown in 75-cm2 flasks at 37° C. with 5% CO2 in air. GH3 cells were cultured in Ham's F12K medium supplemented with 2.5% fetal bovine serum (FBS) and 15% horse serum (Atlanta Biologicals, Norcross, Ga.). HeLa cells were propagated in Eagle minimum essential medium with 10% FBS. The cultures also contained 1% L-glutamine and 1% penicillin/streptomycin (Mediatech Cellgro, Herndon, Va.). For passaging, cells were removed from the substrate with 2-3 ml of 0.25% Trypsin with 2.21 mM EGTA. The cultures were maintained in the logarithmic stage of growth and used at passages 3-15. For a passage immediately preceding the experiments, cells were grown attached to 8- or 10-nun diameter glass cover slips in 35-mm Petri dishes. The cover slips were pretreated with poly-1-lysine (Sigma-Aldrich, St. Louis, Mo.) to improve cell adherence.
# These pairs were formulated to explore, in the first approximation, how different ion substitutions would affect Gm and the reversal potential (Erev) after nsPEF exposure. Two pairs (Cs/Na and Cs/Ba-TEA) were also used to explore nsPEF effects on voltage-gated Na^+ and Ca^2+ channels, respectively. In general, solution pairs from the top to the bottom of the Table 1 contain diminishing amounts and variety of monovalent ions, i.e., K and/or Na were replaced with larger cs^+, TEA^+, or NMDG^+. The contents of anions (C1 and HEPES) were kept almost constant and the same in bath and pipette solutions, except for the last pair, where most of the pipette C1 was replaced with HEPES^−. The pH of pipette and bath solutions was adjusted to 7.4 and 7.2, respectively; the ionic contents shown in Table 1 already include any extra amounts of ions added as a base or acid for pH adjustment. The osmolality of all solutions was between 290 and 320 mOsm, as measured with a freezing point microosmometer (Advanced Instruments, Inc., Norwood, Mass., USA).
# Patch clamp recording: Cells on a cover slip were transferred into a glass-bottomed chamber (Warner Instruments, Hamden, Conn.) mounted on a motorized stage (Prior Scientific Inc., Rockland, Mass.) of an IX71 FluoView™ 300 confocal laser scanning microscope. […] The data from these experiments were analyzed differently (see below). […]
# Once the whole-cell configuration was formed, the membrane resistance and capacitance (Rm and Cm) were measured using the Membrane Test utility of pClamp1 0 software. […] The membrane potential (MP) was measured by switching briefly from voltage to current clamp mode at I=0. […]
# [4] = system: GH3 or HeLa cells; test: PI uptake, positive control for permeabilization; assay type: cell-based; conditions: 0.03% added into the bath
# Protocol: Moreover, the cells remained impermeable to PI even after extra-long trains of 200 pulses, which caused necrotic changes in cells morphology, and even when the observation period was extended to 30-60 min after the exposure.
smiles,measurement,setting,value
[Cl][Gd]([Cl])[Cl] [Gd^3+],swelling and other deleterious effects of oxygen-glucose deprivation,[1]; 100 AM,reduced swelling
same,number of necrotic cells,[2],sharply decreased
same,protective effect against nsPEF,"[3]; 0.2 mM, first trials",no protection
[Cl][La]([Cl])[Cl] [La^3+],swelling and other deleterious effects of oxygen-glucose deprivation,[1]; 100 AM,reduced swelling
C[C@@H]1CC[C@@]2(OC1)O[C@H]1[C@@H](O)[C@H]3[C@@H]4CC[C@H]5C[C@@H](O[C@@H]6O[C@H](CO)[C@H](O[C@@H]7O[C@H](CO)[C@@H](O)[C@H](O[C@@H]8OC[C@@H](O)[C@H](O)[C@H]8O)[C@H]7O[C@@H]7O[C@H](CO)[C@H](O)[C@H](O[C@@H]8O[C@H](CO)[C@@H](O)[C@H](O)[C@H]8O)[C@H]7O)[C@H](O)[C@H]6O)[C@H](O)C[C@]5(C)[C@H]4CC[C@]3(C)[C@H]1[C@@H]2C [digitonin],time to bright PI fluorescence after addition,[4],1 to 2 min
same,"permeabilization, PI fluorescence",[4]; PI in the medium,bright PI fluorescence
N.N.N.N.N.N.N.N.N.N.N.N.N.N.[Cl-].[Cl-].[Cl-].[Cl-].[Cl-].[Cl-].[O-2].[O-2].[Ru+3].[Ru+3].[Ru+4] [ruthenium red],swelling and other deleterious effects of oxygen-glucose deprivation,[1]; 1 ilM,reduced swelling
same,membrane conductance increase by nsPEF,"[3]; 10 p.M in bath of K/Na pair, prior to 1 or 5 pulses",neither enhanced nor inhibited
same,effect on control (sham-exposed) cells,[3]; 50 and 200 μM in bath of K/Na pair,no apparent effect
same,condition of nsPEF-exposed cells,"[3]; 50 and 200 μM in bath of K/Na pair, prior to 1 or 5 pulses",worsened the condition
